Assay results published in paper PMC9844952 (Molecular Imaging and Biology, 2023).
“And” between values parts separate entries of the source, which are not always exact repeats. Equal values may be shown once. Square brackets hold non-standard residues; d marks the D form. Peptide text beside a SMILES is read from it. * marks the point of attachment. NODAGA = O=C(O)CN1CCN(CC(=O)O)CCN(C(CCC(=O)*)C(=O)O)CC1; Tic = O=C(O)[C@@H]1Cc2ccccc2CN1

Experiments:
[1] = tested on: dopaminergic (DA) neurons; assay: 6-OHDA partial lesion rat model: rotation and DA neuron loss
[2] = target: Glucocorticoid receptor (GR) (Mus musculus, UniProt P06537); assay: 18F-YJH08 biodistribution in mice; details: 30 min post injection, PC3 renal capsule tumors
[3] = 64Cu-NODAGA-CG34 PET/CT in bleomycin-induced lung injury; type: in vivo, mouse; details: mouse, lung, PET
CMKLR1 = CMKLR1 (Mus musculus, UniProt P97468); assay: as above; type: in vivo
PSMA = PSMA (Homo sapiens, UniProt Q04609); assay: automated lesion detection on 68Ga PSMA PET; type: in vivo; details: 17 PSMA-positive lesions
aminopeptidase N (APN) = assay: kinetic parameters of probes for APN; type: biochemical
ccRCC lung tumors = assay: [18F]FGln PET/MRI of ccRCC lung tumors; parameters: species or system nude mice; details: mouse, in vivo
UMRC3 cells = assay: [18F]FGln uptake in UMRC3 cells; type: cell-based, human
myeloperoxidase (MPO) = assay: D-mannose in transient MCAO stroke with heMAMP MRI; type: in vivo, C57BL/6J mice
[4] = SWIR ratiometric imaging of ICG clearance; details: mean
[5] = target: deoxycytidine kinase (dCK) (Mus musculus, UniProt P43346); assay: TRE-515 treatment of EAE mouse models of MS; type: in vivo
CSF1R = CSF1R (Mus musculus, UniProt P09581); assay: [18F]1 brain uptake in control and LPS-treated mice; type: in vivo
K+ channels = assay: first-in-human [18F]3F4AP brain PET; type: in vivo
IDO1 = IDO1 (Mus musculus, UniProt P28776); assay: small animal PET in B16F10 mouse models; type: in vivo
HER2 and EGFRvIII = assay: SNIPR-PET T cell imaging in dual xenografts; details: in vivo
PDGFR-β = type: in vivo, mouse; details: imatinib for 3 weeks
EGFR = EGFR (Homo sapiens, UniProt P00533); assay: 89Zr-panitumumab PET in A431 xenografts with metformin; type: in vivo, athymic nude mice; details: acute metformin
HER2 = HER2 (Homo sapiens, UniProt P04626); assay: 89Zr-trastuzumab PET in NCIN87 xenografts with metformin; type: in vivo, athymic nude mice
[6] = tested on: YUMM1.7 melanoma xenografts; assay: BRAF/MEK inhibition in YUMM1.7 melanoma xenografts; type: in vivo, mice; details: for production of 13C-lactate from 13C-glucose: 24 h after treatment; for tumor growth vs control group: mouse, in vivo
[7] = tumor boron content by ICP-MS; type: in vivo, mice; details: 3h after intraperitoneal injection
OX40 [8] = target: T1, OX40 (Homo sapiens, UniProt P43489); assay: [89Zr]huOX40mAb binding to OX40+ HEK293 cells; type: cell-based
T1 sequence (P43489 29-277): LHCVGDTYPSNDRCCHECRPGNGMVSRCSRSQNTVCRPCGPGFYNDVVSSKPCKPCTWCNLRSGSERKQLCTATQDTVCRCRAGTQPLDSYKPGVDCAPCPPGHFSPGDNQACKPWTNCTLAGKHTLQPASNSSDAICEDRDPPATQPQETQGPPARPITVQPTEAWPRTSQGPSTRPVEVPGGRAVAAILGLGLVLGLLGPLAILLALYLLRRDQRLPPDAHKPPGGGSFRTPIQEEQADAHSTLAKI

OX40 [9] = target: T1, OX40; assay: [89Zr]huOX40mAb binding to primary human T cells; type: cell-based
OX40 [10] = target: T1, OX40; assay: [89Zr]huOX40mAb PET in HEK293 tumor mice; type: in vivo, NSG mice; details: 72 hours p.i., PET ROI
Disialoganglioside GD2 = assay: Serial PET/CT of 89Zr-dinutuximab in B78 melanoma mice; type: in vivo, mouse
[11] = 12 μg 6-OHDA into right striatum

deoxycytidine kinase (dCK), sequence (P43346 whole entry): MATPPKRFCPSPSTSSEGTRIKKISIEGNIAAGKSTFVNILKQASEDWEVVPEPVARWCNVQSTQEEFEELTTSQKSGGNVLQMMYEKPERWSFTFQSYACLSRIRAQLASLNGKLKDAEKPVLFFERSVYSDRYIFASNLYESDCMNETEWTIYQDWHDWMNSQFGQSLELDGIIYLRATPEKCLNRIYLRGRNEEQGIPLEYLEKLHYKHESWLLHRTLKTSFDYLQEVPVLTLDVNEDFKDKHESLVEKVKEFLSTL
CMKLR1, sequence (P97468 whole entry): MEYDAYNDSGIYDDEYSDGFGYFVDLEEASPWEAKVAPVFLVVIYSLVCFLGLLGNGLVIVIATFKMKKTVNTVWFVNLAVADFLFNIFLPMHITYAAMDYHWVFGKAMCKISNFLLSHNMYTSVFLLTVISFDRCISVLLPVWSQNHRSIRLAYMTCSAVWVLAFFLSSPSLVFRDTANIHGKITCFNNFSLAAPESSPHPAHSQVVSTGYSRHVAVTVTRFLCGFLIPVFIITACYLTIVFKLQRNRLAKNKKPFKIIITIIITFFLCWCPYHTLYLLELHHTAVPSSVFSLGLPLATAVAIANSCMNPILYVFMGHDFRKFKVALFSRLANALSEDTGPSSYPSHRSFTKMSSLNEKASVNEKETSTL
IDO1, sequence (P28776 whole entry): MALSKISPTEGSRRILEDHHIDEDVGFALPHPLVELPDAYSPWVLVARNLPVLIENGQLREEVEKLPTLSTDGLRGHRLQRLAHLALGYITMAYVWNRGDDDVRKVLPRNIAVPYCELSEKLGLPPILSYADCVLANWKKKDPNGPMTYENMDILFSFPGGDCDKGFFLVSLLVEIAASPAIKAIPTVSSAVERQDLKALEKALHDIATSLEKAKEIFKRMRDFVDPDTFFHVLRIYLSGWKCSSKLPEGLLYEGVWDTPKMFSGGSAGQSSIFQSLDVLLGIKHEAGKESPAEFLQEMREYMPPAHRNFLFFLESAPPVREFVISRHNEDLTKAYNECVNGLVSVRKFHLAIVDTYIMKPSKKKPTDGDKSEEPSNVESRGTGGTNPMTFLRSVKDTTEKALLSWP
HER2, sequence (P04626 23-1255): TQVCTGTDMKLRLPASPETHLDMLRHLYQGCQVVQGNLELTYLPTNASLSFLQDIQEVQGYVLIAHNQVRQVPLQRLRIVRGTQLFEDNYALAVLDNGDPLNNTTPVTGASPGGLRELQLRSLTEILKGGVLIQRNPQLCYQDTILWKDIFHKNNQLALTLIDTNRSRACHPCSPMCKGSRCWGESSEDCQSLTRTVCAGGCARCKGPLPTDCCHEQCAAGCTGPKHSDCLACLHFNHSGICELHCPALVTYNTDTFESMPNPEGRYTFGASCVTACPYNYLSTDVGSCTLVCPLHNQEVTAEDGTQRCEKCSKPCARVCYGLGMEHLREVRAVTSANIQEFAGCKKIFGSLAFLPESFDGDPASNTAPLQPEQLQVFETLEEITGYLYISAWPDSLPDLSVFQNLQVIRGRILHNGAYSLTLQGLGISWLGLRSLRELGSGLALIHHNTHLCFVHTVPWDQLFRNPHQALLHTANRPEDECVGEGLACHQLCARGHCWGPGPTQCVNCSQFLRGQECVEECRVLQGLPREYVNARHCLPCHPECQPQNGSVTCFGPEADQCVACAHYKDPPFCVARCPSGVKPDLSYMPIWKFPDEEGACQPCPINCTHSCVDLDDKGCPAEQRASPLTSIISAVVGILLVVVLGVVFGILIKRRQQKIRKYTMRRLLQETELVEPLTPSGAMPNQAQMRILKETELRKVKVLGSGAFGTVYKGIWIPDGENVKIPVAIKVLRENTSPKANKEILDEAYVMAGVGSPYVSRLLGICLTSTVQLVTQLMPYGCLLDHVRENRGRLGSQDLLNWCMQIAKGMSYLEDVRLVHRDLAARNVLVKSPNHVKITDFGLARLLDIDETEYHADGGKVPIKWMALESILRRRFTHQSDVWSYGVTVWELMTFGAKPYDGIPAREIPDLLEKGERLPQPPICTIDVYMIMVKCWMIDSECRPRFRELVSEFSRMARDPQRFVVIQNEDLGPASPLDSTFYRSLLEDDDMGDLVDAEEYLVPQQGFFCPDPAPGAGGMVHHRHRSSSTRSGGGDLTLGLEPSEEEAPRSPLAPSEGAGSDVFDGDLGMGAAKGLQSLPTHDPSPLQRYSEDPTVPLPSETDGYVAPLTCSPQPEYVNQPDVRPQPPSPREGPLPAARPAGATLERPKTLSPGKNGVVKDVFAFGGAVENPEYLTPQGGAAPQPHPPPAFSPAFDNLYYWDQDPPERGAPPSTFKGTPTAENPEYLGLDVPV
CSF1R, sequence (P09581 20-977): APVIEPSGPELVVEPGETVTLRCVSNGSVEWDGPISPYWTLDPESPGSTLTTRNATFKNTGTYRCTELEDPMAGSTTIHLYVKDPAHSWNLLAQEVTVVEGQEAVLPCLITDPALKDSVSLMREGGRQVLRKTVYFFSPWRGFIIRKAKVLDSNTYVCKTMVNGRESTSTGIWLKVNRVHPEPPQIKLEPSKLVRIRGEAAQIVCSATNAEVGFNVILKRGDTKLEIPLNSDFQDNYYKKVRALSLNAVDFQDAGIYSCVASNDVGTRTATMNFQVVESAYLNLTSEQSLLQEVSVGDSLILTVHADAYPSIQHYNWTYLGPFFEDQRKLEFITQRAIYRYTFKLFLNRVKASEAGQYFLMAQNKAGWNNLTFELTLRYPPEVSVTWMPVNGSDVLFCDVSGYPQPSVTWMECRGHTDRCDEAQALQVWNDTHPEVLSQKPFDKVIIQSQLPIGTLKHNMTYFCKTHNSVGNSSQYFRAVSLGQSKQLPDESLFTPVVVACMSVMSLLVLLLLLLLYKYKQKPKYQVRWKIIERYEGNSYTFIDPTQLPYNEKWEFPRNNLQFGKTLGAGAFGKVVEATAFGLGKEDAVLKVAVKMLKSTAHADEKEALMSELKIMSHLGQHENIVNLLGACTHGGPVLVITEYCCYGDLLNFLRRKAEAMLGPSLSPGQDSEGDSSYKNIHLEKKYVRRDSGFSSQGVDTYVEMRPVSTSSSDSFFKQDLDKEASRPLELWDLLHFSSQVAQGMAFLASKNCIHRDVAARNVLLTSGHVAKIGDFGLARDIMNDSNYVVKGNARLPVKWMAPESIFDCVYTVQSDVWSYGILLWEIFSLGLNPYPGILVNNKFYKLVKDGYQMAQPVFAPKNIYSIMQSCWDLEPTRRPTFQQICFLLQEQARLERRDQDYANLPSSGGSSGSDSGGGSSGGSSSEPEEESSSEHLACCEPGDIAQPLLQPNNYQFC
EGFR, sequence (P00533 25-1210): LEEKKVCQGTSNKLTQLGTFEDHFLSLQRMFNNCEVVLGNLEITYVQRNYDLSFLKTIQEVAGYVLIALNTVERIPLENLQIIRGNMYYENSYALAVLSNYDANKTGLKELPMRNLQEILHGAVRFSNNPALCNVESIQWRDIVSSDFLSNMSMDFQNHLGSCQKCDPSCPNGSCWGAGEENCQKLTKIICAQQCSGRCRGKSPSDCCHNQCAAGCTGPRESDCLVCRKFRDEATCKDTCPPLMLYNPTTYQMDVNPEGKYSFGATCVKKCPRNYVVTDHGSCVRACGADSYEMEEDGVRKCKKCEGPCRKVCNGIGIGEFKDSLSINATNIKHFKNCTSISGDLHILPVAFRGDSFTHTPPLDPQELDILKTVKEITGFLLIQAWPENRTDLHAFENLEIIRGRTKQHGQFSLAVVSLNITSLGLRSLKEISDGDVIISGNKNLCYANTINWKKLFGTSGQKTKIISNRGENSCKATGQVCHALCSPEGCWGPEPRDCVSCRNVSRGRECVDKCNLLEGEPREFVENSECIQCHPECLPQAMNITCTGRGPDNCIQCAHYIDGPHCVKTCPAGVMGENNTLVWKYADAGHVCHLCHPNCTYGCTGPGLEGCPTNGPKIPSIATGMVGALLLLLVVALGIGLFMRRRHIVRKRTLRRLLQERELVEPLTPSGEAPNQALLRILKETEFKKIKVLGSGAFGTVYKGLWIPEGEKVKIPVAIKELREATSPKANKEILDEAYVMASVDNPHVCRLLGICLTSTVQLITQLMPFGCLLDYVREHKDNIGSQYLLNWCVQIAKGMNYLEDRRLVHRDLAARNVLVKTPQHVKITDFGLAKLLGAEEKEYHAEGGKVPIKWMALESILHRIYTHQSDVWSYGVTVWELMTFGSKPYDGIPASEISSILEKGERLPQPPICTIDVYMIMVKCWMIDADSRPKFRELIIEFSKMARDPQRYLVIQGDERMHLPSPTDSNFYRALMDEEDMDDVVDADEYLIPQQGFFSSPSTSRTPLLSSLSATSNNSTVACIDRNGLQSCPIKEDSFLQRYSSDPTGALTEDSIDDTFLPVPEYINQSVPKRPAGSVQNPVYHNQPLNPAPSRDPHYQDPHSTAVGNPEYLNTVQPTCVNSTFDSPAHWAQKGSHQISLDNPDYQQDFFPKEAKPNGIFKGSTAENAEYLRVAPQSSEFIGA

NCCc1cc(O)c(O)cc1O [6-OHDA, 6-hydroxydopamine]
APO-induced rotations, 1st week [1, 11]: 6.4 ± 2.4 turns/ min | APO-induced rotations, 3rd week [1, 11]: 11.3±4.3 turns/ min | DA neurons loss in treated right striatum ([1]; [18F]D6-FP-(+)-DTBZ PET, 4th week): approximately 60%

COc1cccc2c1-c1ccc3c(c1C(Cc1ccc([18F])cc1)O2)C(C)=CC(C)(C)N3 (centres unmarked) [18F-YJH08]
tumoral uptake [2]: ~ 2 % ID/g

CC(C)C[C@H](NC(=O)[C@H](Cc1ccccc1)NC(=O)[C@@H](Cc1ccc(O)cc1)NC(=O)CCC(C(=O)O)N1CCN(CC(=O)O)CCN(CC(=O)O)CC1)C(=O)N1CCC[C@H]1C(=O)N[C@H](CO)C(=O)N[C@@H](CCC(N)=O)C(=O)N[C@@H](Cc1ccccc1)C(=O)N[C@H](C)C(=O)N1Cc2ccccc2C[C@H]1C(=O)N[C@@H](CO)C(=O)O (some centres unmarked) [64Cu-NODAGA-CG34, metal not drawn] ({NODAGA}-[dY]FLP[dS]QF[dA][Tic]S-OH; N-terminus and C-terminus assumed)
tissue uptake ([3]; lung %ID/gmax, 2 weeks): 3.35 ± 0.47 %ID/g | tissue uptake ([3]; lung %ID/gmax, 4 weeks): 1.96 ± 0.19 %ID/g | tissue uptake ([3]; lung %ID/gmax, baseline): 1.38 ± 0.1 %ID/g | tissue uptake ([3]; lung %ID/gmean, 1 week after bleomycin): 2.47 ± 0.67 %ID/g | tissue uptake ([3]; lung %ID/gmean, 2 weeks): 1.83 ± 0.3 %ID/g | tissue uptake ([3]; lung %ID/gmean, 4 weeks): 1.03 ± 0.1 %ID/g | tissue uptake ([3]; lung %ID/gmean, baseline): 0.7 ± 0.06 %ID/g | uptake on co-injection of excess NODAGA-CG34 (CMKLR1; 100x molar excess non-radiolabeled): near-completely blocked | lung %ID/gmax, 1 week after bleomycin (CMKLR1; PET): 4.04±0.87 %ID/g

O=C([O-])CN(CCN(CC(=O)[O-])Cc1cc(CCC(=O)NCCCCCC(=O)NCCCC[C@H](NC(=O)N[C@@H](CCC(=O)O)C(=O)O)C(=O)O)ccc1[O-])Cc1cc(CCC(=O)O)ccc1[O-].[68Ga+3].[OH3+] [68Ga PSMA]
diagnostic sensitivity of automated lesion detection (PSMA): 100%

C[C@H](N)C(N)=O [Ala-NH2]
Km (aminopeptidase N (APN)): 15.7 ± 4.4 mM

O=C(Cc1cccc(OC(F)(F)F)c1)Nc1ccc(CCCCc2nnc(NC(=O)Cc3ccccn3)s2)nn1 [CB-839]
effect on [18F]FGln retention in lung tumors (ccRCC lung tumors): did not change significantly | effect on [18F]FGln cellular uptake (UMRC3 cells): increased

OC[C@H]1OC(O)[C@@H](O)[C@@H](O)[C@@H]1O (stereo partly drawn) [D-mannose]
neurological deficit scores vs PBS (myeloperoxidase (MPO); 450mg/kg i.p. daily): improved neurological deficit scores | heMAMP MRI enhancement in the infarcted area (myeloperoxidase (MPO); day 10, p=0.0027): decreased

CC1(C)C(/C=C/C=C/C=C/C=C2\N(CCCCS(=O)(=O)O)c3ccc4ccccc4c3C2(C)C)=[N+](CCCCS(=O)(=O)[O-])c2ccc3ccccc3c21 [ICG, indocyanine green]
blood half-life, isoflurane ([4]; sd 0.28, n=4): 2.56 min | blood half-life, awake ([4]; sd 0.73, n=4): 2.81 min | liver clearance, isoflurane ([4]; sd 2.50, n=3): 18.44 min | liver clearance, awake ([4]; sd 3.29, n=9): 18.71 min

COc1ccc(-c2nc([C@@H](C)Sc3nc(N)cc(N)n3)c(C)s2)cc1OCCN1CCOCC1 [TRE-515]
clinical symptoms ([5]; MOG35-55 and PLP139-151 EAE models): limited clinical symptoms | side effects ([5]; both MS mouse models): no observable side effects | plasma levels of deoxycytidine ([5]; mouse, in vivo): increased

Cc1cccc(COc2ccccc2CN(CC[C@H](N)C(=O)O)Cc2ccccc2OCc2cccc(C)c2)c1 [V-9302]
reduction of [18F]FGln cell uptake (UMRC3 cells; treatment with inhibitor): 20-50%

CC1CCN(c2cc(N3CCN(CC[18F])CC3)ccc2NC(=O)c2cc(C#N)c[nH]2)CC1 [[18F]1]
peak brain uptake in control mice (CSF1R; 5 min post-administration): 3.6 %ID/g tissue | increase in brain uptake in LPS group (CSF1R; LPS-treated vs control mice): 46%

Nc1ccncc1[18F] [[18F]3F4AP]
VT in gray matter (K+ channels; 1T model): 1.52-1.69 mL.cm^-3 | VT in white matter (K+ channels; 1T model): 1.22-1.29 mL.cm^-3 | VT in MS lesions (K+ channels; 2T model, two lesions of one MS subject): 2.24 mL. cm^-3 and 2.26 mL. cm^-3 | whole-blood to plasma ratio (K+ channels; after 15 min): 0.88 ± 0.01 | radioactivity corresponding to parent compound (K+ channels; plasma, 90 min post injection, Radio-HPLC, average): 31% | peak SUV in gray matter (K+ channels; ~3 min, control subjects): 5-7 SUV | peak SUV in white matter (K+ channels; ~3 min, control subjects): 2-4 SUV

COc1ccc2[nH]cc(C[C@H](N)C(=O)O)c2c1[18F] [[18F]-L-T13, 4-F-5-OMe-tryptophan]
tumor uptake (IDO1): 9.57±0.26 %ID/g | tumor/muscle uptake ratio (IDO1): 4.57±0.2

NC(=O)[C@H]([18F])C[C@H](N)C(=O)O [[18F]FGln, (2S,4R)-4-[18F]fluoroglutamine]
retention in lung tumors vs muscle (ccRCC lung tumors): 2 fold | retention in lung tumors vs normal lung tissue (ccRCC lung tumors): 1.5 fold | cell uptake in UMRC3 vs HEK293 cells (UMRC3 cells): 2 fold | reduction of tracer cell uptake by excess glutamine (UMRC3 cells; excess glutamine in the media): 60-90%

Nc1nc2c(ncn2CCC(CO)C[18F])c(=O)[nH]1 (centres unmarked) [[18F]FHBG]
signal in antigen-expressing tumors vs controls (HER2 and EGFRvIII): > 10 fold

CC(=O)NCC1CN(c2ccc(N3CCSCC3)c([18F])c2)C(=O)O1 (centres unmarked) [[18F]sutezolid]
brain penetration in TB meningitis (mouse, in vivo): penetrated the brain parenchyma | penetration in lung lesions vs unaffected lung (pulmonary TB, P< 0.05): significantly lower penetration in the lung lesions

Cc1ccc(NC(=O)c2ccc(CN3CCN(C)CC3)cc2)cc1Nc1nccc(-c2cccnc2)n1 [imatinib]
accumulation of Cy7-BiPPB in mutant kidneys under treatment (PDGFR-β): decreased

CN(C)C(=N)N=C(N)N [metformin]
uptake of 89Zr-labeled Panitumumab, control vs metformin-treated tumors (EGFR): ~ 1.8 | lowering of [89Zr]Zr-DFO-Trastuzumab tumor uptake by daily metformin (HER2; 200 mg/kg ip for 11 consecutive days): 3.7 fold | %ID/g of 89Zr-labeled Trastuzumab, control vs acute metformin tumors (HER2; 24 h post-injection, metformin 250 mg/kg oral): ~ 1.6

CC(=O)Nc1cccc(-n2c(=O)n(C3CC3)c(=O)c3c(Nc4ccc(I)cc4F)n(C)c(=O)c(C)c32)c1 [trametinib]
production of 13C-lactate from 13C-glucose [6]: significantly reduced | tumor growth vs control group [6]: significantly delayed

CCCS(=O)(=O)Nc1ccc(F)c(C(=O)c2c[nH]c3ncc(-c4ccc(Cl)cc4)cc23)c1F [vemurafenib]
production of 13C-lactate from 13C-glucose [6]: significantly reduced | tumor growth vs control group [6]: significantly delayed

boronophenylalanine-fructose [BPA-Fr]
boron content of the tumor [7]: around 42±13 ppm

B1: [89Zr]huOX40mAb: DFO-conjugated human OX40 mAb Ivuxolimab labeled with 89Zr (conjugate, chains of the INN, looked up)
VH: EVQLVESGGGLVQPGGSLRLSCAASGFTFSSYSMNWVRQAPGKGLEWVSYISSSSSTIDYADSVKGRFTISRDNAKNSLYLQMNSLRDEDTAVYYCARESGWYLFDYWGQGTLVTVSS
VL: DIQMTQSPSSLSASVGDRVTITCRASQGISSWLAWYQQKPEKAPKSLIYAASSLQSGVPSRFSGSGSGTDFTLTISSLQPEDFATYYCQQYNSYPPTFGGGTKVEIK
modifications: DFO; 89Zr
binding to OX40+ HEK293 vs parental HEK293 cells (OX40 [8]): 26.8 fold | reduction of binding to OX40+ HEK293 cells by blocking (OX40 [8]; 25-fold excess cold mAb): 87% | binding to activated (OX40+) vs resting T cells (OX40 [9]): 10.8 fold | reduction of binding to activated T cells by blocking (OX40 [9]; 25-fold excess cold mAb): 88% | uptake in HEK293 tumors (OX40 [10]): 2.5 ± 0.7 %ID/g

B2: 89Zr-dinutuximab: anti-GD2 mAb dinutuximab radiolabeled via DFO (antibody, chains of the INN, looked up, V domains shown)
VH: EVQLLQSGPELEKPGASVMISCKASGSSFTGYNMNWVRQNIGKSLEWIGAIDPYYGGTSYNQKFKGRATLTVDKSSSTAYMHLKSLTSEDSAVYYCVSGMEYWGQGTSVTVSS
VL: EIVMTQSPATLSVSPGERATLSCRSSQSLVHRNGNTYLHWYLQKPGQSPKLLIHKVSNRFSGVPDRFSGSGSGTDFTLKISRVEAEDLGVYFCSQSTHVPPLTFGAGTKLELK
modifications: 89Zr-DFO
tumor uptake (Disialoganglioside GD2; 4 hours, PET): 6.5 %ID/g | tumor uptake (peak) (Disialoganglioside GD2; 71 hours, PET): 12 %ID/g | blood uptake (Disialoganglioside GD2; 170 hours): < 2 %ID/g | liver uptake (Disialoganglioside GD2; 170 hours): ~ 6 %ID/g | normal tissues uptake except liver (Disialoganglioside GD2; 170 hours): < 5 %ID/g | normal tissues uptake (Disialoganglioside GD2; initial): < 11 %ID/g
